Molecular target: T1, human EHMT2 913-1193 (Homo sapiens, UniProt Q96KQ7)
T1 construct: recombinant purified human EHMT2 913-1193, Viva; purchased Viva
T1 sequence (Q96KQ7 913-1193): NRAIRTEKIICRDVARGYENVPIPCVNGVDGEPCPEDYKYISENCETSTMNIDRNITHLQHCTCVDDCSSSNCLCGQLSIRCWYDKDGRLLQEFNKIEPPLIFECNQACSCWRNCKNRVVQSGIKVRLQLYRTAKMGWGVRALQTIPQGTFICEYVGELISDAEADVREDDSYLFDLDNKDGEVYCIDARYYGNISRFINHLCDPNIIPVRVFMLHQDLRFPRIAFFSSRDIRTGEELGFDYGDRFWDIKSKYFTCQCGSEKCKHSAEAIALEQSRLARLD
Experiment: EHMT2 enzyme assay on histone peptide substrate (EHMT2 PEP)
Type: biochemical
Conditions: recombinant human EHMT2 913-1193, histone H3 1-15 peptide, balanced conditions; read-out: EHMT2 PEP (IC50 μM)
Method in brief: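 Compounds (10-point, 3-fold dilutions, top 50 μM final, 2% DMSO) preincubated 30 min with 0.031 nM EHMT2 in 20 mM Bicine pH 7.5, 0.002% Tween 20, 0.005% gelatin, 1 mM TCEP. Biotinylated histone peptide methylated with ^3H-SAM 60 min at room temperature. Quenched with unlabeled SAM; product captured on streptavidin Flashplate, scintillation counted.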

Row | IC50 [µM] | Compound
1 | < 0.1 | CNc1cc(C)nc(Nc2ccc(OC)c(OC[C@@H]3CCN(C4CC4)C3)c2)n1 (single isomer, unassigned) [Compound 481]
2 | 0.1 to 1 | CNc1cc(C)nc(Nc2ccc(OC)c(OC[C@H]3CCN(C4CC4)C3)c2)n1 (single isomer, unassigned) [Compound 482]
3 | > 10 | CNc1ccnc(Nc2ccc(OC)c(OCCOC3CC3)c2)n1 [Compound 453, N^2-(3-(2-cyclopropoxyethoxy)-4-methoxyphenyl)-N^4-methylpyrimidine-2,4-diamine]
4 | > 10 | CNc1cc(C)nc(Nc2ccc(OC)c(OC3CCN(C)CC3)c2)n1 [Compound 455]
5 | 1 to 10 | CNc1cc(C)nc(Nc2ccc(OC)c(OCC3CCN(C4CCCC4)C3)c2)n1 (centres unmarked) [Compound 456, N^2-(3-((1-cyclopentylpyrrolidin-3-yl)methoxy)-4-methoxyphenyl)-N^4,6-dimethylpyrimidine-2,4-diamine]
6 | < 0.1 | CNc1cc(C)nc(Nc2ccc(OC)c(OCC3CCN(C4CC4)C3)c2)n1 (centres unmarked) [Compound 457]
7 | 0.1 to 1 | CNc1cc(C2CCCC2)nc(Nc2ccc(OC)c(OCCCN3CCCC3)c2)n1 [Compound 458, 6-cyclopentyl-N^2-(4-methoxy-3-(3-(pyrrolidin-1-yl)propoxy)phenyl)-N^4-methylpyrimidine-2,4-diamine]
8 | 1 to 10 | CNc1cc(C2CCOCC2)nc(Nc2ccc(OC)c(OCCCN3CCCC3)c2)n1 [Compound 459, N^2-(4-methoxy-3-(3-(pyrrolidin-1-yl)propoxy)phenyl)-N^4-methyl-6-(tetrahydro-2H-pyran-4-yl)pyrimidine-2,4-diamine]
9 | < 0.1 | COc1cnc(Nc2nc(C)cc3[nH]ncc23)cc1OCCCN1CCCC1 [Compound 460, N-(5-methoxy-4-(3-(pyrrolidin-1-yl)propoxy)pyridine-2-yl)-6-methyl-1H-pyrazolo[4,3-c]pyridine-4-amine]
10 | < 0.1 | CNc1cc(C)nc(Nc2ccc(OC)c(OCC3CCN(CCO)C3)c2)n1 (centres unmarked) [Compound 461, 2-(3-((2-methoxy-5-((4-methyl-6-(methylamino)pyrimidin-2-yl)amino)phenoxy)methyl)pyrrolidin-1-yl)ethan-1-ol]
11 | < 0.1 | COc1ccc(Nc2nc(C)cc(NCC3CCOCC3)n2)cc1OCC1CCN(C2CC2)C1 (centres unmarked) [Compound 462, N^2-(3-((1-cyclopropylpyrrolidin-3-yl)methoxy)-4-methoxyphenyl)-6-methyl-N^4-((tetrahydro-2H-pyran-4-yl)methyl)pyrimidine-2,4-diamine]
12 | < 0.1 | CNc1cc(C)nc(Nc2ccc(OC)c(OCCCN(C)C3CC3)c2)n1 [Compound 463, N^2-(3-(3-(cyclopropyl(methyl)amino)propoxy)-4-methoxyphenyl)-N^4,6-dimethylpyrimidine-2,4-diamine]
13 | 0.1 to 1 | COc1cnc(Nc2cc(NCC3CCOCC3)cc(C)n2)cc1OCCCN1CCCC1 [Compound 464, N^2-(5-methoxy-4-(3-(pyrrolidin-1-yl)propoxy)pyridin-2-yl)-6-methyl-N^4-((tetrahydro-2H-pyran-4-yl)methyl)pyridine-2,4-diamine]
14 | < 0.1 | CNc1cc(C)nc(Nc2ccc(OC)c(OCCCN3CC(O)C3)c2)n1 [Compound 465, 1-(3-(2-methoxy-5-((4-methyl-6-(methylamino)pyrimidin-2-yl)amino)phenoxy)propyl)azetidin-3-ol]
15 | > 10 | CNc1cc(C)nc(Nc2ccc(OC)c(OC3CCN(C4CC4)CC3)c2)n1 [Compound 466, N^2-(3-((1-cyclopropylpiperidin-4-yl)oxy)-4-methoxyphenyl)-N^4,6-dimethylpyrimidine-2,4-diamine]
16 | 1 to 10 | CNc1cc(C)nc(Nc2ccc(OC)c(OC[C@H]3C[C@@H](N(C)C)C3)c2)n1 [Compound 468]
17 | > 10 | CNc1cc(C)nc(Nc2ccc(OC)c(OC[C@H]3C[C@H](N(C)C)C3)c2)n1 [Compound 470]
18 | 1 to 10 | CCn1nc(Nc2nccc3[nH]ccc23)cc1COCCN1CCCC1 [Compound 471]
19 | 1 to 10 | CNc1cc(Nc2cc(OC[C@@H]3CCN(C)C3)c(OC)cn2)nc(C)n1 [Compound 473]
20 | 0.1 to 1 | CNc1cc(C)nc(Nc2cc(OC[C@@H]3CCN(C)C3)c(OC)cn2)c1 [Compound 475]

Row | IC50 [µM] | Compound
21 | 0.1 to 1 | CNc1ccnc(Nc2ccc(OC)c(OC[C@@H]3CN(C)C[C@@H]3C)c2)n1 [Compound 477]
22 | > 10 | CNc1ccnc(Nc2ccc(OC)c(OCc3nnc(C4CC4)[nH]3)c2)n1 [Compound 478]
23 | > 10 | CNc1ccnc(Nc2ccc(OC)c(OCc3ncn(C4CC4)n3)c2)n1 [Compound 480]
24 | < 0.1 | CNc1cc(C(C)C)nc(Nc2ccc(OC)c(OCCCN3CCCC3)c2)n1 [Compound 483]
25 | < 0.1 | COc1cnc(Nc2nc(C)cc3[nH]c(C)cc23)cc1OCCCN1CCCC1 [Compound 485]
26 | > 10 | COc1ccc(Nc2nc(C)cc3[nH]ccc23)cc1OCCCN1CCCC1 [Compound 486]
27 | 1 to 10 | CNc1cc(C)nc(Nc2ccc(OC)c([C@H]3C[C@@H]3CN(C)C)c2)n1 [Compound 487]
28 | 0.1 to 1 | CNc1cc(C)nc(Nc2ccc(OC)c([C@H]3C[C@H]3CN(C)C)c2)n1 [Compound 488]
29 | 1 to 10 | CNc1cc(C)nc(Nc2ccc(OC)c(OC(C#N)CCN3CCCC3)c2)n1 (centres unmarked) [Compound 489]
30 | < 0.1 | CNc1cc(C)nc(Nc2ccc(OC)c(OCCCN3CCC3)c2)n1 [Compound 490]
31 | 0.1 to 1 | CNc1cc(C)nc(Nc2ccc(OC)c(OC[C@@H]3CN(C)C[C@H]3O)c2)n1 [Compound 491]
32 | 0.1 to 1 | CNc1cc(C)nc(Nc2ccc(OC)c(OC[C@@H]3CN(C)C[C@@H]3O)c2)n1 [Compound 492]
33 | < 0.1 | COc1cnc(Nc2nc(C)cc3[nH]ccc23)cc1OCC1CCN(C2CC2)C1 (centres unmarked) [Compound 494]
34 | 0.1 to 1 | COc1cnc(Nc2nc(C)cc3[nH]ccc23)cc1OC[C@H]1CCN(C2CC2)C1 [Compound 494a]
35 | 0.1 to 1 | COc1cnc(Nc2nc(C)cc3[nH]ccc23)cc1OC[C@@H]1CCN(C2CC2)C1 [Compound 495]
36 | 1 to 10 | CNc1cc(C)nc(Nc2cc(Cl)c(OC)c(OCCCN3CCCC3)c2)n1 [Compound 496]
37 | 0.1 to 1 | CCc1ccc(Nc2nc(C)cc(NC)n2)cc1OCCCN1CCCC1 [Compound 497]
38 | 1 to 10 | CNc1cc(C)nc(Nc2ccc(OC)c(OCCCN3CCC4(CC4)C3)c2)n1 [Compound 498, N^2-(3-(3-(5-azaspiro[2.4]heptan-5-yl)propoxy)-4-methoxyphenyl)-N^4,6-dimethylpyrimidine-2,4-diamine]
39 | 1 to 10 | CNc1cc(C)nc(Nc2ccc(OC)c(OCCCCN(C)C)c2)n1 [Compound 502]
40 | 1 to 10 | CNc1cc(C)nc(Nc2ccc(OC)c(OCCC3CCN(C)C3)c2)n1 (centres unmarked) [Compound 503]

Row | IC50 [µM] | Compound
41 | 0.1 to 1 | CNc1cc(C)nc(Nc2ccc(OC)c(OCCCN3CCCC3C)c2)n1 (centres unmarked) [Compound 504, N^2-(4-methoxy-3-(3-(2-methylpyrrolidin-1-yl)propoxy)phenyl)-N^4,6-dimethylpyrimidine-2,4-diamine]
42 | < 0.1 | CNc1cc(C)nc(Nc2ccc(OC)c(OCCCN3CC4CC4C3)c2)n1 (centres unmarked) [Compound 506]
43 | < 0.1 | COc1cnc(Nc2nccc3[nH]ccc23)cc1OCCCN1CC2CC2C1 (centres unmarked) [Compound 507]
44 | 1 to 10 | CNc1cc(C)nc(Nc2ccc(OC)c(OCCC3CN(C)C3)c2)n1 [Compound 508]
45 | 0.1 to 1 | CNc1cc(Nc2cc(OCCCN3CC4CC4C3)c(OC)cn2)nc(C)c1F (centres unmarked) [Compound 509]
46 | 0.1 to 1 | CNc1cc(C)nc(Nc2ccc(OC)c(OCC3CN(C4CC4)C3)c2)n1 [Compound 510]
47 | < 0.1 | CNc1cc(C)nc(Nc2cnc(OC)c(OC[C@@H]3CCN(C4CC4)C3)c2)n1 [Compound 512]
48 | 0.1 to 1 | CNc1cc(C)nc(Nc2cnc(OC)c(OCCCN3CC4CC4C3)c2)n1 (centres unmarked) [Compound 514]
49 | 1 to 10 | CCc1ncc(Nc2nc(C)cc(NC)n2)cc1OCCCN1CCCC1 [Compound 515]
50 | 1 to 10 | CNc1cc(C)nc(Nc2cnc(C3CC3)c(OCCCN3CCCC3)c2)n1 [Compound 516]
51 | 0.1 to 1 | CNc1cc(C)nc(Nc2ccc(OC)c(OCC3CCCN(C4CC4)C3)c2)n1 (centres unmarked) [Compound 517a]
52 | 0.1 to 1 | CNc1cc(C)nc(Nc2ccc(OC)c(OC[C@H]3CCCN(C4CC4)C3)c2)n1 [Compound 517b]
53 | 1 to 10 | CNc1nc(C2CCCC2)c2cc(OC)c(OCCCN3CCCC3)cc2n1 [Compound 518, 4-cyclopentyl-6-methoxy-N-methyl-7-(3-(pyrrolidin-1-yl)propoxy)quinazolin-2-amine]
54 | 0.1 to 1 | CNc1nc(C2CCN(C(C)=O)CC2)c2cc(OC)c(OCCCN3CCCC3)cc2n1 [Compound 519]
55 | < 0.1 | CNc1nc(C2CCNCC2)c2cc(OC)c(OCCCN3CCCC3)cc2n1 [Compound 520]
56 | 1 to 10 | CNc1nc(C2CCOCC2)c2cc(OC)c(OCCCN3CCCC3)cc2n1 [Compound 521]
57 | 1 to 10 | CNc1nc(C2=CCOCC2)c2cc(OC)c(OCCCN3CCCC3)cc2n1 [Compound 522]
58 | 1 to 10 | CNc1nc(C2CCCCC2)c2cc(OC)c(OCCCN3CCCC3)cc2n1 [Compound 523, 4-cyclohexyl-6-methoxy-N-methyl-7-(3-(pyrrolidin-1-yl)propoxy)quinazolin-2-amine]
59 | < 0.1 | CNc1cc(C2CCOCC2)c2cc(OC)c(OCCCN3CCCC3)cc2n1 [Compound 524, 6-methoxy-N-methyl-4-(oxan-4-yl)-7-[3-(pyrrolidin-1-yl)propoxy]quinolin-2-amine]

Reference: US20210198277A1, “AMINE-SUBSTITUTED ARYL OR HETEROARYL COMPOUNDS” (Epizyme, Inc., priority 2016, published 2021)
